Assays:
[1] = system: liver cells around the central vein; experiment: fatty liver: proportion of abnormal fat-containing cells in the liver of rabbits; type: in vivo, New Zealand White rabbits; conditions: for A: Proportion of abnormal fat-containing liver cells (grade): 1% cholesterol diet plus 0.1% compound (Lovastatin 1 mg/kg), mean of grades 1+ to 4+, Control 3.2 ± 0.3; for microscopic features of the liver: FIGS. 2B and 2C, around the central vein
Protocol: (§1) 30 three-month-old male New Zealand White rabbits (Yeonam Horticulture and Animal Husbandry College, Korea), each weighing about 2.5 to 2.6 kg, were raised under a condition of temperature 20+2° C., relative humidity 55±5%, and photoperiod 12L/12D. The rabbits were divided into 5 groups and 5 groups of rabbits were fed with 5 different diets, i.e., RC4 diet (Oriental Yeast Co., Japan) containing 1% cholesterol (Control group, 1); 1% cholesterol plus 1 mg/kg Lovastatin® (Merck, U.S.A.) (Lovastatin® group, 2); 1% cholesterol plus 0.1% tannin (3); 1% cholesterol plus 0.1% gallic acid (4); and 1% cholesterol plus 0.1% ellagic acid (5), respectively. RC4 diet comprises 7.6% moisture, 22.8% crude protein, 2.8% crude fat, 8.8% crude ash, 14.4% crude cellulose and 43.6% soluble nitrogen-free substances. Tannin, gallic acid and ellagic acid were purchased from Sigma Chemical Co. (St. Louis, Mo.).
(§2) The rabbits were fed for 6 weeks while being allowed free access to the diets and water.
(Step 5) Prevention of Hepatic Diseases

[2] = system: main artery (arterial endothelium); experiment: analysis for fatty streak in the main artery of rabbits; type: in vivo, New Zealand White rabbits; conditions: for Fatty streak (proportion of stained region to total arterial area): 1% cholesterol diet plus 0.1% compound (Lovastatin 1 mg/kg), Control 35 ± 14; for layer of macrophage-lipid complex on the arterial endothelium: FIGS. 1B and 1C, control: thick layer
Protocol: as §1, §2
(Step 3) Analysis for fatty streak in the main artery
The chest of each of the rabbits sacrificed in Step 2 was incised. The downward portion of the main artery from the site 1 cm above the aortic valve was cut out in a length of about 5 cm and the fat surrounding the main artery was removed. The main artery was incised in the middle along the longitudinal axis and pinned to a dish. The moist artery was photographed and, then, the staining of fatty streaks was carried out in accordance with the method of Esper, E., et al. (J. Lab. Clin. Med., 121, 103-110 (1993)) as follows.
A part of the incised main artery was washed three times with anhydrous propylene glycol for 2 min. and stained for 30 min. with a saturated solution of Oil Red O (ORO, Sigma Co.) dissolved in propylene glycol. Thereafter, the artery was washed twice with 85% propylene glycol for 3 min. to remove remaining staining solution and, then washed with physiological saline. The artery was photographed and the photograph was traced. The area of stained region (fatty streak region) was determined with an image analyzer (LEICA, Q-600, Germany) and its proportion (%) to the total arterial area was calculated.
FIGS. 1A, 1B and 1C show the arteries of the rabbits administered with 1% cholesterol (Control group); 1% cholesterol plus 1 mg/kg Lovastatin® (Lovastatin® group); 1% cholesterol plus 0.1% ellagic acid, respectively.

[3] = chemical analysis of blood of rabbits fed a high-cholesterol diet; type: in vivo, New Zealand White rabbits; conditions: for TG (triglyceride): Control 56 ± 38; for TC (total cholesterol): Control 1143 ± 260
Protocol: Effect of Tannin, Gallic acid or Ellagic acid in an Animal
(Step 1) Administration of tannin, gallic acid or ellagic acid to rabbits
as §1, §2
(Step 2) Chemical Analysis of Blood
After six weeks, the rabbits were anesthetized with an intramuscular injection of ketamine (50 mg/kg) in the femoral region and sacrificed. A blood sample was taken from the heart of each rabbit, allowed to stand for 2 hours and centrifuged at 3,000 rpm for 15 minutes and the supernatant serum was separated and stored in a freezer before use.
The chemical analysis of blood was carried out by employing a blood chemical analyzer (CIBA Corning 550 Express, USA) to determine the changes in GOT, GPT, γGTP, total cholesterol, HDL-cholesterol and triglyceride levels.

[4] = system: LDL receptor in the liver; conditions: Farmer, J. A., et al. (1995), cited from earlier work; for plasma LDL cholesterol level: by enhancing the activity of LDL receptor in the liver
[5] = rabbits, 1% cholesterol diet plus 0.1% compound (Lovastatin 1 mg/kg), 6 weeks

Structure (SMILES) | A: Proportion of abnormal fat-containing liver cells (grade) ([1]; 6 weeks) | inhibition of the formation of fatty liver ([1]; 1% cholesterol diet, 6 weeks) | microscopic features of the liver [1] | Fatty streak (proportion of stained region to total arterial area) ([2]; 6 weeks) [%] | plaque formation in the endothelium of the main artery ([2]; 6 weeks) | layer of macrophage-lipid complex on the arterial endothelium ([2]; 6 weeks) | deposition of macrophages on the arterial endothelium ([2]; blood cholesterol level high) | effect on the liver function (adverse) ([3]; rabbit, in vivo) | TG (triglyceride) [3, 5] [mg/dL] | TC (total cholesterol) [3, 5] [mg/dL] | lipid metabolism and liver function ([3]; rabbits, 6 weeks) | side effects [4] | plasma LDL cholesterol level [4] | γGTP ([3]; rabbits, 1% cholesterol diet plus 0.1% compound (Lovastatin 1 mg/kg), 6 weeks, Control 4.2 ± 0.9) [IU/l] | GPT ([3]; rabbits, 1% cholesterol diet plus 0.1% compound (Lovastatin 1 mg/kg), 6 weeks, Control 65 ± 9) [IU/l] | GOT ([3]; rabbits, 1% cholesterol diet plus 0.1% compound (Lovastatin 1 mg/kg), 6 weeks, Control 77 ± 8) [IU/l]
O=c1oc2c(O)c(O)cc3c(=O)oc4c(O)c(O)cc1c4c23 [Ellagic acid, ellagic acid] | 2.7 | significantly inhibit the formation of fatty liver | almost all liver cells are of a normal shape | 9 ± 2 | inhibit | no or very thin layers of macrophage-lipid complex | strongly inhibit | do not adversely affect on the liver function | 25 ± 10 | 1000 ± 105 | can improve |  |  |  |  | 
CC[C@H](C)C(=O)O[C@H]1C[C@@H](C)C=C2C=C[C@H](C)[C@H](CC[C@@H]3C[C@@H](O)CC(=O)O3)[C@H]21 [Lovastatin®, reference compound] | 3.4 ± 0.5 |  | many cells containing excessive fat were observed around the central vein | 5 |  | no or very thin layers of macrophage-lipid complex |  |  | 66 ± 17 | 1210 ± 263 |  | increase in creatine kinase in the liver and rhabdomyolysis | may reduce the plasma LDL cholesterol level | 12.4 ± 0.8 | 73 ± 9 | 125 ± 19
CCC(C)(C)C(=O)O[C@H]1C[C@@H](C)C=C2C=C[C@H](C)[C@H](CC[C@@H]3C[C@@H](O)CC(=O)O3)[C@H]21 [Simvastatin®] |  |  |  |  |  |  |  |  |  |  |  |  | may reduce the plasma LDL cholesterol level |  |  | 

Reference: US6133311A, “Method for preventing or treating elevated blood lipid level-related diseases by administering natural phenolic compounds” (priority 1998, dated 2000)
